Experimental data from ChEMBL document CHEMBL1201862, “PubChem BioAssay data set” (2004).
The source made the active and inactive calls.

Columns and labels:
[1] = target: T1, Bcl-2-related protein A1 (Mus musculus, UniProt Q07440); test: Bfl-1 inhibitors blocking BH3 peptide binding, confirmation, biochemical, TR-FRET, mouse Bfl-1 (AID 621);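 also: TR-FRET binding of GST-Bfl-1 to FITC-labelled Bid peptide via terbium antibody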
T1 sequence (Q07440 whole entry): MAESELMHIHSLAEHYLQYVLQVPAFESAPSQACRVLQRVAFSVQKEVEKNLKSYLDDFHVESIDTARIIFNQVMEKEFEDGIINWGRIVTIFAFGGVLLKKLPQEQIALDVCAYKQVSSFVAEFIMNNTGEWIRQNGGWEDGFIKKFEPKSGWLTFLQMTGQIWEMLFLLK

[2] = target: Heat shock cognate 71 kDa protein (Homo sapiens, UniProt P11142); test: In Vitro Hsc70 Dose Response Fluorescence Polarization Assay. [Related pubchem assays: 1072 ]
Chain of Heat shock cognate 71 kDa protein (P11142 whole entry): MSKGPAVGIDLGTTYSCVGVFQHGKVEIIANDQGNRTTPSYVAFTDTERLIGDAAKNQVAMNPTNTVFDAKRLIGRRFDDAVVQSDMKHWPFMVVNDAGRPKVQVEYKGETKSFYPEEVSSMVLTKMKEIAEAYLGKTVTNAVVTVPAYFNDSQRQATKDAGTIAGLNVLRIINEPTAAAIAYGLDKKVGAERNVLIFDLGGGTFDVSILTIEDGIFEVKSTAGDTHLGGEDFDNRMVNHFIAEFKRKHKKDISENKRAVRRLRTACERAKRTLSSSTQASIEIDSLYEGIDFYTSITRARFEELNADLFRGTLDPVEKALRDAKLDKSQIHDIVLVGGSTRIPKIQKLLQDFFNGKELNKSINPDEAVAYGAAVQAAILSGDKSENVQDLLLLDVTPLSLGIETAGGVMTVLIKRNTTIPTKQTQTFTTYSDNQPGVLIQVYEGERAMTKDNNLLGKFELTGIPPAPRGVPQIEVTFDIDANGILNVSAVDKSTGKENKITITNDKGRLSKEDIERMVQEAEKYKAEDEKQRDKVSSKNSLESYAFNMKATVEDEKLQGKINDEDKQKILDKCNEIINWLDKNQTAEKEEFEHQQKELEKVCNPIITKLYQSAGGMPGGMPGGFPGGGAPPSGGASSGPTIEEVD

[3] = target: Heat shock 70 kDa protein 1A (Homo sapiens, UniProt P0DMV8); test: Hsp70 inhibitors, SAR follow-up, biochemical, fluorescence polarization (AID 1072)
Chain of Heat shock 70 kDa protein 1A (P0DMV8 whole entry): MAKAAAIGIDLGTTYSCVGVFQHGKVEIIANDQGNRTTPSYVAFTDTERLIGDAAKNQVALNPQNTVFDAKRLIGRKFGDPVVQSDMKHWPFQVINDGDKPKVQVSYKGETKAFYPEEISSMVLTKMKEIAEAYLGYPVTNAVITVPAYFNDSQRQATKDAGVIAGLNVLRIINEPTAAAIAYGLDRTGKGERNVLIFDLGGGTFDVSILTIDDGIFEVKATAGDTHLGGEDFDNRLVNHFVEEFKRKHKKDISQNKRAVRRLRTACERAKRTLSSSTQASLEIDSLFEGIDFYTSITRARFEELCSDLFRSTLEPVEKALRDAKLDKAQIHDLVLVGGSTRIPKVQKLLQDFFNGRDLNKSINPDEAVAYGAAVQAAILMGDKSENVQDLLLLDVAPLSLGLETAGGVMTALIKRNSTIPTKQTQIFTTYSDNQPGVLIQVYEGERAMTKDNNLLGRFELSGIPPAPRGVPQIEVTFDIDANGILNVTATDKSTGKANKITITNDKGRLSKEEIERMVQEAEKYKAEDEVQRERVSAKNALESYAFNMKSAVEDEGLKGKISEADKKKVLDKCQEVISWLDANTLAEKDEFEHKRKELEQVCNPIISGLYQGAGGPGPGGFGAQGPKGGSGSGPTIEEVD

[4] = target: Glyceraldehyde-3-phosphate dehydrogenase (Homo sapiens, UniProt P04406)
Chain of Glyceraldehyde-3-phosphate dehydrogenase (P04406 whole entry): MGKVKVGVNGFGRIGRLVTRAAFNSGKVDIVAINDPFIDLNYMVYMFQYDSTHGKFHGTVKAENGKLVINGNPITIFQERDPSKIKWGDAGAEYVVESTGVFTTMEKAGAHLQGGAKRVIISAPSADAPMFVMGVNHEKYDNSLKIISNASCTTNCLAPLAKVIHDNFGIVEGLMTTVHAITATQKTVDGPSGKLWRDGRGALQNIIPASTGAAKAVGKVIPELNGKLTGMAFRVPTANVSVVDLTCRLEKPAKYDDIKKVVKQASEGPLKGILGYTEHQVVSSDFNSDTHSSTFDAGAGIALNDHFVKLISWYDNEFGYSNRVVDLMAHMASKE

[5] = target: T1, Bcl-2-related protein A1; test: Bfl-1 binding inhibitors, SAR follow-up, biochemical, fluorescence polarization (AID 1070)
[6] = target: T2, Lysosomal acid glucosylceramidase (Homo sapiens, UniProt P04062); test: Dose response cell-based high throughput screening assay to identify enhancers of beta-glucosidase activity. [Related pubchem assays: 784 ]; format: functional
T2 sequence (P04062 whole entry): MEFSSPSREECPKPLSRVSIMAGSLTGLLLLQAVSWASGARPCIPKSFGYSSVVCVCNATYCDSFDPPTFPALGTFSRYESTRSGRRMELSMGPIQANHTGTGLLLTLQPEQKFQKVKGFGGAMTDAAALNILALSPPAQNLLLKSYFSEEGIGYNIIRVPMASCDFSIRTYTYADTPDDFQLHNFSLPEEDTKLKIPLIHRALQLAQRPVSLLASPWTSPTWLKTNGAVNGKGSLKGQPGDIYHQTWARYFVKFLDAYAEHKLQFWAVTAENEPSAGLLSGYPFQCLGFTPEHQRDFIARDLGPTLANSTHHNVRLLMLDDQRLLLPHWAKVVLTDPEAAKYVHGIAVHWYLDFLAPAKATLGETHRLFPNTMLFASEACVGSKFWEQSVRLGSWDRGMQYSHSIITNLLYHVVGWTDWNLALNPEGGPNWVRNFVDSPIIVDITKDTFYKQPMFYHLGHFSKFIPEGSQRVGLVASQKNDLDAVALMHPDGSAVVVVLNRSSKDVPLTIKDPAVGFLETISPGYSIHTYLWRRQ

[7] = target: T3, Bcl-2-like protein 10 (Homo sapiens, UniProt Q9HD36); test: displacers of TR3 peptide from Bcl-B, primary screen, selectivity assay for Bfl-1 inhibitor project, biochemical, fluorescence polarization, FITC-TR3 peptide (AID 748);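 also: fluorescence polarization from a fluorescein-labelled TR3 peptide binding purified Bcl-B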
T3 sequence (Q9HD36 whole entry): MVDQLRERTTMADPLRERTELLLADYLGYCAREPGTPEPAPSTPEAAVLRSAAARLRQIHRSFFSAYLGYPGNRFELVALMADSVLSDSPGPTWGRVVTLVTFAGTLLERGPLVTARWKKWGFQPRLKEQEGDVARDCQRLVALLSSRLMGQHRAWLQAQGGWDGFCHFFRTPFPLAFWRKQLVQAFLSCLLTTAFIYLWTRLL

[8] = target: T4, Zinc finger protein mex-5 (Caenorhabditis elegans, UniProt Q9XUB2); test: MEX-5/TCR-2 RNA interaction inhibitors, dose response, biochemical, C. elegans, fluorescence polarization (AID 1960)
T4 sequence (Q9XUB2 whole entry): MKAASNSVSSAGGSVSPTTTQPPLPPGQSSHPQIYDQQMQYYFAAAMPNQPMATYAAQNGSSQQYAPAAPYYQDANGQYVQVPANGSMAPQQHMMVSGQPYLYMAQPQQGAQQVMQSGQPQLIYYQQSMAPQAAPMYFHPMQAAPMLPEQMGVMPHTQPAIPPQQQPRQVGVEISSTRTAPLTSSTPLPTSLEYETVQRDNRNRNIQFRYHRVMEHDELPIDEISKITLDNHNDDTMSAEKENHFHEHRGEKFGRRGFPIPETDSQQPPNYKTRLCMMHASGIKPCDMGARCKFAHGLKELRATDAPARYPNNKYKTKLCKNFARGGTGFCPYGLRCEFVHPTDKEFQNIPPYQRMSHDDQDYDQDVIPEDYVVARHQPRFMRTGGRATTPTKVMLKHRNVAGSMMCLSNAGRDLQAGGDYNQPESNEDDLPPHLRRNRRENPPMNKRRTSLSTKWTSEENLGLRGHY

[9] = target: T5, RNA-binding protein pos-1 (Caenorhabditis elegans, UniProt G5EF15); test: inhibitors of POS-1/mex-3 RNA binding, dose response, biochemical, fluorescence polarization (AID 1964);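 also: purified POS-1 fused to maltose binding protein made in E. coli; potency of compounds blocking POS-1 binding to fluorescent RNA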
T5 sequence (G5EF15 whole entry): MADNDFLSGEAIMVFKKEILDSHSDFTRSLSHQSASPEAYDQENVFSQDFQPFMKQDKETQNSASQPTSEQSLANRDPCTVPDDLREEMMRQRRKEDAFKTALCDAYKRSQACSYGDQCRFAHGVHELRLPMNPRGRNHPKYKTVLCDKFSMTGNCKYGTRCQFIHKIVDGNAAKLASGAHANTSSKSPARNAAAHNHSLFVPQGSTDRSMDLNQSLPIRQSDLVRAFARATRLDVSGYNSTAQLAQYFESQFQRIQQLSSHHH

[10] = inhibitors of intracellular T. cruzi replication, confirmation, NIH3T3 host cells, beta-gal luminescence (AID 2044); format: functional, cell-based;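 also: intracellular parasites grown in NIH/3T3 mouse fibroblasts as host cells; luminescent beta-galactosidase reporter signal from transgenic T. cruzi replicating inside host cells; inhibitors lower the luminescence signal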
[11] = cells
[12] = cytotoxicity toward NIH3T3 fibroblasts, dose response, counter-screen, cell-based, ATP luminescence, mouse fibroblasts (AID 2010); format: functional;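 also: cells exposed to compound for about 90 hours before reading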
[13] = cells; format: functional
[14] = microbe, parasite or virus in culture; format: functional; details: Mycobacterium tuberculosis
[15] = HepG2 cell cytotoxicity, dose response, cytotoxicity control for non-replicating M. tuberculosis project (AID 489018); format: functional; details: Mycobacterium tuberculosis
[16] = HEp-2 cell cytotoxicity, dose response, cytotoxicity control for RSV inhibitor project, HTS (AID 2410); format: functional; details: human respiratory syncytial virus
[17] = THP-1 cell cytotoxicity, dose response, cytotoxicity control for non-replicating M. tuberculosis project (AID 489025); format: functional
[18] = target: Prothrombin (Homo sapiens, UniProt P00734); test: Thrombin 1536 HTS Dose Response Confirmation. [Related pubchem assays: 1046 (Thrombin 1536 HTS; hits were confirmed in this assay)]; format: functional
[19] = A cytotoxicity screen of small molecule inhibitors of the PhoP region in Salmonella typhi identified in the primary screen. [Related pubchem assays: 1850, 1864, 1985 ]; format: functional
[20] = ADAM10 protease inhibitors, dose response, selectivity assay for ADAM17 exosite inhibitor project, biochemical, FRET peptide substrate, recombinant human ADAM10 (AID 743259);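 also: ADAM10 enzyme cleaving a FRET peptide substrate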
[21] = target: T6, Disintegrin and metalloproteinase domain-containing protein 17 (Homo sapiens, UniProt P78536); test: exosite inhibitors of ADAM17, dose response, biochemical (AID 743260)
T6 sequence (P78536 whole entry, the tested form may be a part): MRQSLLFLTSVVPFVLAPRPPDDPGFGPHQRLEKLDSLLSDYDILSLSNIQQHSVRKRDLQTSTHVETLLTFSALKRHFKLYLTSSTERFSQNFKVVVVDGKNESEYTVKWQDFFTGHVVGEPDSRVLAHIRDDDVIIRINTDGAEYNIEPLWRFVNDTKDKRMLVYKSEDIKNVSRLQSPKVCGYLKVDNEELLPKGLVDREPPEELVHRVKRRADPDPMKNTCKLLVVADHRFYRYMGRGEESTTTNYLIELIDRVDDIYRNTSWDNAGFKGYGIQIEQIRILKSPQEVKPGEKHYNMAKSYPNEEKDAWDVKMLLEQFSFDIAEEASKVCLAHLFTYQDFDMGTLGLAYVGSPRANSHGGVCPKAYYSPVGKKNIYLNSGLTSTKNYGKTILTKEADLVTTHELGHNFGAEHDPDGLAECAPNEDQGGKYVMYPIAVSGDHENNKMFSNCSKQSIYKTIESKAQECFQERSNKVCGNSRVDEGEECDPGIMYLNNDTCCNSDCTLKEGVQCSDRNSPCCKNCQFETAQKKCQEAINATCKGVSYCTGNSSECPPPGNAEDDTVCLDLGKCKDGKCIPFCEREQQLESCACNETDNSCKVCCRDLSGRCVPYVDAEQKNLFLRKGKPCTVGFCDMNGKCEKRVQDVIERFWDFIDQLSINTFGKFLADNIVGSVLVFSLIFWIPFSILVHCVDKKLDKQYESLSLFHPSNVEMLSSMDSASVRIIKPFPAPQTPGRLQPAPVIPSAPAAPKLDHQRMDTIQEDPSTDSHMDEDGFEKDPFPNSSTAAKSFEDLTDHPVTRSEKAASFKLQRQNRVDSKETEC

[22] = target: T7, Rac GTPase-activating protein 1 (Homo sapiens, UniProt Q9H0H5); test: MgcRacGAP GTPase-activating activity inhibitors, confirmation, biochemical, ADP Hunter fluorescence, primary and confirmatory (AID 624330); format: functional
T7 sequence (Q9H0H5 whole entry): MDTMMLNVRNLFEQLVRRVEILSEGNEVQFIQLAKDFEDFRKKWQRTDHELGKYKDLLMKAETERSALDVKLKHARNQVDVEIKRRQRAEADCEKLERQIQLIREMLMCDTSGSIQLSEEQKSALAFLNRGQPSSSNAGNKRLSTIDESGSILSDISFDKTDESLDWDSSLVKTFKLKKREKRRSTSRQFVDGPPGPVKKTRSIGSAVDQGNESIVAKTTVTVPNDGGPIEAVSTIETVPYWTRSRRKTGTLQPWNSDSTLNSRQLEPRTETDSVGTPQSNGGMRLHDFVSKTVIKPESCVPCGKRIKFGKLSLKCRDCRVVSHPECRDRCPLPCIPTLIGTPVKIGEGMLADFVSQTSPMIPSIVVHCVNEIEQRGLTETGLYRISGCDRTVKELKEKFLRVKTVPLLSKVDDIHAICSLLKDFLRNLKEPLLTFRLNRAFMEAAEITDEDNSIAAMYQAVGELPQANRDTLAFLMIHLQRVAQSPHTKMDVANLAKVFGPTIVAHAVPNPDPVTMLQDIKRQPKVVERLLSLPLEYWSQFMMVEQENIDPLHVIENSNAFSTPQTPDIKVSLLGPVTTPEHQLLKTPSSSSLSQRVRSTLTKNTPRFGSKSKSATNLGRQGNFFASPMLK

[23] = target: Cytochrome P450 3A4 (Homo sapiens, UniProt P08684); details: Potency;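 also: confirmatory qHTS run detecting inhibitors and substrates of CYP3A4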
Chain of Cytochrome P450 3A4 (P08684 whole entry, the tested form may be a part): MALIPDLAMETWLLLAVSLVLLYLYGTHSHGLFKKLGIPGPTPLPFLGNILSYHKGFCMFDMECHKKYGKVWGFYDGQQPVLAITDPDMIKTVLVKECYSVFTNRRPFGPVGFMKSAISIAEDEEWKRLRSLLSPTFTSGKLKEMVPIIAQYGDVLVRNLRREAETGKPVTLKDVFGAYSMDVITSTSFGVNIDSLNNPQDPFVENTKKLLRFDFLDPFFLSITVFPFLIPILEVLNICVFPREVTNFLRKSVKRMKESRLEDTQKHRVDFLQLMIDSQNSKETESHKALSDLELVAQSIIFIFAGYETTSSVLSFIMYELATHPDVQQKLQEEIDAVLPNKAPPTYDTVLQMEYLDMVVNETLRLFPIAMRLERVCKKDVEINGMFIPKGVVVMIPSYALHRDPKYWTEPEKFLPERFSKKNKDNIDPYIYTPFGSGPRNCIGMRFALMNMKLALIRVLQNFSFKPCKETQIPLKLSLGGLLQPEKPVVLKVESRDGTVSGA

[24] = target: T6, Disintegrin and metalloproteinase domain-containing protein 17; test: ADAM17 protease inhibitors, dose response, counter-screen for ADAM10 exosite inhibitor project, biochemical, quenched FRET substrate (AID 743253)
[25] = ADAM10 inhibitors, peptide cleavage, dose response, biochemical, QFRET (AID 743254);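 also: ADAM10 enzyme with the DM2 quenched FRET peptide as substrate; EDANS fluorescence gain as the protease cuts the substrate; inhibitor potency against ADAM10 proteolytic activity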
[26] = target: Luciferin 4-monooxygenase (Photinus pyralis, UniProt P08659); test: Counter Screen for Luciferase-based Assay Positives. [Related pubchem assays: 620, 618, 411 ]
Chain of Luciferin 4-monooxygenase (P08659 whole entry): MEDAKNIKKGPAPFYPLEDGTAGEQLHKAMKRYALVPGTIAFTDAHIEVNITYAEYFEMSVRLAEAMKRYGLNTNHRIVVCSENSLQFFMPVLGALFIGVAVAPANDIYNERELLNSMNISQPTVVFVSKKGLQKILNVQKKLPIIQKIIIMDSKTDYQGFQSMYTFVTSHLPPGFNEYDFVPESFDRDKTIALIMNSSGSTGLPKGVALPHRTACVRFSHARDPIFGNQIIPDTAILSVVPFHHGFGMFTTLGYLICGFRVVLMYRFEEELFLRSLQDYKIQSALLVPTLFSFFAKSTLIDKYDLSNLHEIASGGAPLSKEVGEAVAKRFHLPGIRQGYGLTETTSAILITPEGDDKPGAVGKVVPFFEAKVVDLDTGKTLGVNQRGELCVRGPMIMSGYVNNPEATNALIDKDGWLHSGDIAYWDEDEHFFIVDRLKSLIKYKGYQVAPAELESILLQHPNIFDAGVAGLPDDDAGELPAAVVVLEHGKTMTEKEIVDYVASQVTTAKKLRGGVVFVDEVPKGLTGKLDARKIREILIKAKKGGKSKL

[27] = test system: HT-1080; test: cytotoxicity in HT1080 fibrosarcoma cells, cell-based, fluorescence readout (AID 620); format: functional; details: Homo sapiens
[28] = target: Paired box protein Pax-8 (Homo sapiens, UniProt Q06710); test: inhibitors of PAX8-driven TPO luciferase reporter, dose response, RMG-I cells, cherry-pick (AID 687027); format: functional, cell-based;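 also: luciferase reporter driven by Pax8 target thyroperoxidase promoter measured by SteadyGlo luminescence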
Chain of Paired box protein Pax-8 (Q06710 whole entry): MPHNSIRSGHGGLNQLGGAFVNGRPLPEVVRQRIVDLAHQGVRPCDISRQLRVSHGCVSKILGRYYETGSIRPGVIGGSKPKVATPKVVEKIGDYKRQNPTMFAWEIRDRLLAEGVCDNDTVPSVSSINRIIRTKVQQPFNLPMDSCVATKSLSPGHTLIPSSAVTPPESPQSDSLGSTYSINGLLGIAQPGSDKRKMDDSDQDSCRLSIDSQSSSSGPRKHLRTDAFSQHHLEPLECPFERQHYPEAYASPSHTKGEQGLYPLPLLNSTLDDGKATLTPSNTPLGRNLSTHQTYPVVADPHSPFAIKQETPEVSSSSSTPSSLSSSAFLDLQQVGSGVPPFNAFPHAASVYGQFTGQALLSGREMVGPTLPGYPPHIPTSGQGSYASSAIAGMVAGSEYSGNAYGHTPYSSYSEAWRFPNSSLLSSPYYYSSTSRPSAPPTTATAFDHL

[29] = HEK293T cytotoxicity, dose response, cytotoxicity control for miR-122 modulator project, cell-based, inhibitor set, cherry-pick, set 2 (AID 720697); format: functional
[30] = non-specific cell cytotoxicity, dose response, cytotoxicity control for PAX8 inhibitor project, plate reader, dry powder samples (AID 743021); format: functional, cell-based

O=C1C(Cl)=C(N2CCN(CCOCCO)CC2)C(=O)N1c1ccc(Cl)c(Cl)c1
IC50 [1]: 0.42 µM (active) | IC50 [2]: > 100 µM (not active) | IC50 [3]: > 100 µM (not active) | IC50 [4]: > 100 µM (not active) | IC50 [5]: 0.47 µM (active)

Cc1cc(NS(=O)(=O)c2ccc(NC(=O)CCN3C(=O)c4ccccc4C3=O)cc2)no1
EC50 [6]: > 50 µM (not active)

COc1ccc(S(=O)(=O)N(CC(=O)NCC2CCCO2)c2ccccc2)cc1OC (stereo not drawn)
EC50 [6]: > 50 µM (not active)

N=c1c(C(=O)NCC2CCCO2)cc2c(=O)n3ccccc3nc2n1Cc1cccnc1 (stereo not drawn)
IC50 [7]: > 25 µM (inactive) | EC50 [8]: 12.2 µM (active) | EC50 [9]: 17.1 µM (active)

CCCCN(C)CCNC(=O)c1nn(-c2ccc(OC)cc2)c(=O)c2c1c1ccccc1n2C
EC50 [10]: < 0.1 µM (active) | EC50 [11]: 0.44 µM (active) | EC50 [12]: > 60 µM (not active)

C=CCNCC(=O)N1N=C(c2ccc3ccccc3c2)CC1c1ccc(OC)cc1 (stereo not drawn)
IC50 [13]: 18.1 µM (active) | CC50 [14]: 25.5 µM (active) | CC50 [15]: > 20 µM (active) | CC50 [16]: 14.9 µM (active) | CC50 [17]: 23.5 µM (active)

COc1ccc(NC(=S)Nc2ccc3cn[nH]c3c2)cc1
IC50 [18]: 5.6 µM (active)

CC(=O)N(CCC1(c2ccc(C)cc2)CCOC(C(C)C)C1)Cc1ccco1 (stereo not drawn)
EC50 [19]: > 50 µM (active)

Cc1cccc(Nc2nnc(SCC(=O)c3ccc(Br)s3)s2)c1C
IC50 [20]: > 69.5 µM (inactive) | IC50 [21]: > 69.5 µM (inactive)

C=CCNS(=O)(=O)c1nc(C)c(Cl)c(C)c1C#N
IC50 [7]: > 100 µM (inactive)

Oc1cccc(Nc2ccccc2)c1
IC50 [22]: 62.6 µM (active) | AC50 [23]: 15.8 µM (inconclusive)

CC(C)(C)OC(=O)NCc1ccc(CNC(=O)c2nc[nH]c2C(=O)N[C@@H](Cc2ccccc2)C(=O)OC(C)(C)C)cc1
IC50 [24]: > 69.5 µM (inactive)

CCOc1ccccc1-n1c(SCC(N)=O)nnc1-c1ccc(O)cc1
EC50 [6]: > 50 µM (not active)

Cc1ccccc1CN(c1ccc(C(=O)Nc2ccccc2C(=O)NCc2ccco2)cc1)S(C)(=O)=O
IC50 [24]: > 69.5 µM (inactive) | IC50 [25]: > 69.5 µM (inactive)

Cc1nc(C)c(-c2ccc(SCc3ccccc3C)nn2)s1
EC50 [19]: > 50 µM (active)

COc1nc(C)ccc1-c1noc(-c2ccco2)n1
EC50 [26]: 1.78 µM (active) | EC50 [27]: > 50 µM (not active)

CC(C)N(CCn1c(SCC(=O)N2CC(=O)Nc3ccccc32)nc2ccccc2c1=O)C(C)C
EC50 [10]: < 0.1 µM (active) | EC50 [11]: 0.061 µM (active) | EC50 [12]: > 60 µM (not active)

O=c1oc(-c2ccccc2[N+](=O)[O-])nc2ccccc12
IC50 [18]: 0.116 µM (active)

CCOc1ccc(CCN2C(=S)N([C@@H](Cc3ccc(O)cc3)CN3CCC[C@@H]3CN3C(=S)NC[C@@H]3CC(C)C)C[C@@H]2Cc2ccc(O)cc2)cc1
IC50 [24]: > 69.5 µM (inactive) | IC50 [25]: 12.4 µM (inactive) | AC50 [28]: 8.84 µM (active)

CCc1nc2sc(C)c(C)c2c(=O)n1CCO
AC50 [29]: 8.36 µM (active)

COC(=O)C1=C(C)N(Cc2cccc(C(F)(F)F)c2)C(NCC2CC2)=NC1c1cccc(C(F)(F)F)c1 (stereo not drawn)
AC50 [28]: 17.2 µM (active) | AC50 [30]: 20.8 µM (active)

Cc1sc2nc(SCC(=O)c3ccc(O)c(O)c3)n(Cc3ccco3)c(=O)c2c1C
IC50 [20]: > 69.5 µM (inactive) | IC50 [21]: > 69.5 µM (inactive)

COCC(=O)N(C)C[C@@H]1[C@H](c2ccc(-c3ccccc3)cc2)[C@@H](CO)N1C(C)=O
AC50 [29]: 9.74 µM (active)

COc1ccc(C2C(=O)c3ccccc3C2=O)cc1OC
IC50 [18]: > 50 µM (not active)

O=C(NC1CCCCC1)NC1CCCCC1 [1,3-DICYCLOHEXYLUREA]
AC50 [23]: 3.16 µM (inconclusive)

CC1(C)CC2C1CCC1(C)OC2(C)CCC1O (stereo not drawn) [3,7-EPOXYCARYOPHYLLAN-6-OL]
AC50 [23]: 25.1 µM (inconclusive)
